In brackets after ≈: the same amount, converted by molar mass. Where two headings read alike, the source gives them in different places.
Assays:
bacteria = conditions: versus erythromycin A (U.S. Pat. No. 3,417,077; Rocz. Chem. 46, 2212-2217, 1972); cited from earlier work
[1] = test system: series of test microorganisms; experiment: in vitro test on a series of test microorganisms (MIC), overall; type: cell-based; conditions: test strains of Tables 1 and 2; in comparison with starting 11-aza-10-deoxo-10-dihydro erythromycin A
Method: The new compounds were tested in vitro on a series of test microorganisms.

[2] = test system: Staphylococcus aureus ATCC 6538-P; experiment: Minimum Inhibitory Concentration (MIC), in vitro; type: cell-based
[3] = test system: Bacillus subtilis ATCC 6633; experiment: Minimum Inhibitory Concentration (MIC), in vitro; type: cell-based
[4] = test system: Bacillus cereus var. mycoides ATCC 11778; experiment: microbe, parasite or virus in culture; type: cell-based; conditions: ATCC11778, read-out: Minimum Inhibitory Concentration (MIC)
[5] = test system: Micrococcus flavus ATCC 10240; experiment: Minimum Inhibitory Concentration (MIC), in vitro; type: cell-based
[6] = test system: Streptococcus faecalis ATCC 8043; experiment: Minimum Inhibitory Concentration (MIC), in vitro; type: cell-based; conditions: Enterococcus faecalis
[7] = test system: Staphylococcus epidermidis ATCC 12228; experiment: Minimum Inhibitory Concentration (MIC), in vitro; type: cell-based
Sarcina lutea ATCC 9341 = experiment: Minimum Inhibitory Concentration (MIC), in vitro; type: cell-based; conditions: Micrococcus luteus
[8] = ATCC6538, Staphylococcus aureus ATCC 6538-P, in vitro, read-out: Minimum Inhibitory Concentration (MIC)
[9] = ATCC6633, Bacillus subtilis ATCC 6633, in vitro, read-out: Minimum Inhibitory Concentration (MIC)
[10] = ATCC10240, Micrococcus flavus ATCC 10240, in vitro, read-out: Minimum Inhibitory Concentration (MIC)
[11] = ATCC8043, Streptococcus faecalis ATCC 8043, in vitro, read-out: Minimum Inhibitory Concentration (MIC)
[12] = ATCC12228, Staphylococcus epidermidis ATCC 12228, in vitro, read-out: Minimum Inhibitory Concentration (MIC)
[13] = ATCC9341, Sarcina lutea ATCC 9341, in vitro, read-out: Minimum Inhibitory Concentration (MIC)

Row | SMILES | antibacterial activity compared with the starting antibiotic (bacteria) | antibacterial activity in words [1] | MIC [2, 8] | MIC [3, 9] | MIC [4] | MIC [5, 10] | MIC [6, 11] | MIC [7, 12] | MIC (Sarcina lutea ATCC 9341; [13]) | MIC ([2]; Staphylococcus aureus, ATCC6538, read-out: Minimum Inhibitory Concentration (MIC)) | MIC ([3]; Bacillus subtilis, ATCC6633, read-out: Minimum Inhibitory Concentration (MIC)) | MIC ([5]; Micrococcus flavus, ATCC10240, read-out: Minimum Inhibitory Concentration (MIC)) | MIC ([6]; ATCC8043, read-out: Minimum Inhibitory Concentration (MIC)) | MIC ([7]; Staphylococcus epidermidis, ATCC12228, read-out: Minimum Inhibitory Concentration (MIC)) | MIC (Sarcina lutea ATCC 9341; ATCC9341, read-out: Minimum Inhibitory Concentration (MIC))
1 | CC[C@H]1OC(=O)[C@H](C)[C@@H](O[C@H]2C[C@@](C)(OC)[C@@H](O)[C@H](C)O2)[C@H](C)[C@@H](O[C@@H]2O[C@H](C)C[C@H](N(C)C)[C@H]2O)[C@](C)(O)C[C@@H](C)C(=O)[C@H](C)[C@H]2OC(=O)O[C@@]21C [11,12-cyclic carbonate of erythromycin A] | improved antibacterial activity |  |  |  |  |  |  |  |  |  |  |  |  |  | 
2 | CC[C@H]1OC(=O)[C@H](C)[C@@H](O[C@H]2C[C@@](C)(OC)[C@@H](O)[C@H](C)O2)[C@H](C)[C@@H](O[C@@H]2O[C@H](C)C[C@H](N(C)C)[C@H]2O)[C@](C)(O)C[C@@H](C)CN(C)[C@H](C)[C@@H](O)[C@]1(C)O [Example 1, N-methyl-11-aza-10-deoxo-10-dihydro erythromycin A] |  | superior effect on some tested microorganisms | 0.5 µg/mL (≈ 0.668 µM) | 0.1 µg/mL (≈ 0.134 µM) | 0.5 µg/mL (≈ 0.668 µM) | 0.01 µg/mL (≈ 0.0134 µM) | 0.01 µg/mL (≈ 0.0134 µM) | 0.5 µg/mL (≈ 0.668 µM) | 0.05 µg/mL (≈ 0.0668 µM) |  |  |  |  |  | 
3 | CC[C@H]1OC(=O)[C@H](C)[C@@H](O[C@H]2C[C@@](C)(OC)[C@@H](O)[C@H](C)O2)[C@H](C)[C@@H](O[C@@H]2O[C@H](C)C[C@H](N(C)C)[C@H]2OC(C)=O)[C@](C)(O)C[C@@H](C)CN(C)[C@H](C)[C@@H](O)[C@]1(C)O [Example 2, 2'-acetyl-N-methyl-11-aza-10-deoxo-10-dihydro erythromycin A] |  |  |  |  | 0.5 µg/mL (≈ 0.632 µM) |  |  |  |  | 0.5 µg/mL (≈ 0.632 µM) | 0.1 µg/mL (≈ 0.126 µM) | 0.5 µg/mL (≈ 0.632 µM) | 0.1 µg/mL (≈ 0.126 µM) | 0.5 µg/mL (≈ 0.632 µM) | 0.1 µg/mL (≈ 0.126 µM)
4 | CC[C@H]1OC(=O)[C@H](C)[C@@H](O[C@H]2C[C@@](C)(OC)[C@@H](OC(C)=O)[C@H](C)O2)[C@H](C)[C@@H](O[C@@H]2O[C@H](C)C[C@H](N(C)C)[C@H]2OC(C)=O)[C@](C)(O)C[C@@H](C)CN(C)[C@H](C)[C@@H](O)[C@]1(C)O [Example 3, 2',4"-diacetyl-N-methyl-11-aza-10-deoxo-10-dihydro erythromycin A] |  |  | 0.5 µg/mL (≈ 0.6 µM) | 2.5 µg/mL (≈ 3 µM) | 0.5 µg/mL (≈ 0.6 µM) | 0.1 µg/mL (≈ 0.12 µM) | 0.5 µg/mL (≈ 0.6 µM) | 2.5 µg/mL (≈ 3 µM) | 0.1 µg/mL (≈ 0.12 µM) |  |  |  |  |  | 
5 | CC[C@H]1OC(=O)[C@H](C)[C@@H](O[C@H]2C[C@@](C)(OC)[C@@H](OC(C)=O)[C@H](C)O2)[C@H](C)[C@@H](O[C@@H]2O[C@H](C)C[C@H](N(C)C)[C@H]2OC(C)=O)[C@](C)(O)C[C@@H](C)CN(C)[C@H](C)[C@@H](OC(C)=O)[C@]1(C)O [Example 4, 2',4"-13-triacetyl-N-methyl-11-aza-10-deoxo-10-dihydro erythromycin A] |  | did not exhibit any satisfactory activity |  |  |  |  |  |  |  |  |  |  |  |  | 
6 | CCC(=O)O[C@H]1[C@H](O[C@@H]2[C@@H](C)[C@H](O[C@H]3C[C@@](C)(OC)[C@@H](O)[C@H](C)O3)[C@@H](C)C(=O)O[C@H](CC)[C@@](C)(O)[C@H](O)[C@@H](C)N(C)C[C@H](C)C[C@@]2(C)O)O[C@H](C)C[C@@H]1N(C)C [Example 5, 2'-propionyl-N-methyl-11-aza-10-dihydro erythromycin A] |  |  | 0.1 µg/mL (≈ 0.124 µM) | 0.5 µg/mL (≈ 0.621 µM) | 0.5 µg/mL (≈ 0.621 µM) | 0.05 µg/mL (≈ 0.0621 µM) | 0.05 µg/mL (≈ 0.0621 µM) | 0.05 µg/mL (≈ 0.0621 µM) | 0.05 µg/mL (≈ 0.0621 µM) |  |  |  |  |  | 
7 | CCC(=O)O[C@H]1[C@H](O[C@@H]2[C@@H](C)[C@H](O[C@H]3C[C@@](C)(OC)[C@@H](OC(=O)CC)[C@H](C)O3)[C@@H](C)C(=O)O[C@H](CC)[C@@](C)(O)[C@H](O)[C@@H](C)N(C)C[C@H](C)C[C@@]2(C)O)O[C@H](C)C[C@@H]1N(C)C [Example 6, 2',4"-dipropionyl-N-methyl-11-aza-10-deoxo-10-dihydro erythromycin] |  |  | 0.5 µg/mL (≈ 0.581 µM) | 0.1 µg/mL (≈ 0.116 µM) | 0.5 µg/mL (≈ 0.581 µM) | 0.5 µg/mL (≈ 0.581 µM) | 0.1 µg/mL (≈ 0.116 µM) | 0.1 µg/mL (≈ 0.116 µM) | 0.05 µg/mL (≈ 0.0581 µM) |  |  |  |  |  | 
8 | CC[C@H]1OC(=O)[C@H](C)[C@@H](O[C@H]2C[C@@](C)(OC)[C@@H](O)[C@H](C)O2)[C@H](C)[C@@H](O[C@@H]2O[C@H](C)C[C@H](N(C)C)[C@H]2O)[C@](C)(O)C[C@@H](C)CN(C)[C@H](C)[C@H]2OC(=O)O[C@@]21C [Example 7, N-methyl-11-aza-10-deoxo-10-dihydro erythromycin A 13,14-cyclic carbonate] |  |  | 0.1 µg/mL (≈ 0.129 µM) | 0.1 µg/mL (≈ 0.129 µM) | 0.1 µg/mL (≈ 0.129 µM) | 0.1 µg/mL (≈ 0.129 µM) | 0.05 µg/mL (≈ 0.0645 µM) | 0.5 µg/mL (≈ 0.645 µM) | 0.1 µg/mL (≈ 0.129 µM) |  |  |  |  |  | 
9 | CC[C@H]1OC(=O)[C@H](C)[C@@H](O[C@H]2C[C@@](C)(OC)[C@@H](O)[C@H](C)O2)[C@H](C)[C@@H](O[C@@H]2O[C@H](C)C[C@H](N(C)C)[C@H]2OC(C)=O)[C@](C)(O)C[C@@H](C)CN(C)[C@H](C)[C@H]2OC(=O)O[C@@]21C [Example 8, 2'-acetyl-N-methyl-11-aza-10-deoxo-10-dihydro erythromycin A 13,14-cyclic carbonate] |  |  | 0.1 µg/mL (≈ 0.122 µM) | 0.1 µg/mL (≈ 0.122 µM) | 0.1 µg/mL (≈ 0.122 µM) | 0.1 µg/mL (≈ 0.122 µM) | 0.05 µg/mL (≈ 0.0612 µM) | 0.5 µg/mL (≈ 0.612 µM) | 0.05 µg/mL (≈ 0.0612 µM) |  |  |  |  |  | 
10 | CC[C@H]1OC(=O)[C@H](C)[C@@H](O[C@H]2C[C@@](C)(OC)[C@@H](OC(C)=O)[C@H](C)O2)[C@H](C)[C@@H](O[C@@H]2O[C@H](C)C[C@H](N(C)C)[C@H]2OC(C)=O)[C@](C)(O)C[C@@H](C)CN(C)[C@H](C)[C@H]2OC(=O)O[C@@]21C [Example 9, 2',4"-diacetyl-N-methyl-11-aza-10-deoxo-10-dihydro erythromycin A 13,14-cyclic carbonate] |  |  | 2.5 µg/mL (≈ 2.91 µM) | 2.5 µg/mL (≈ 2.91 µM) | 2.5 µg/mL (≈ 2.91 µM) | 1 µg/mL (≈ 1.16 µM) | 0.5 µg/mL (≈ 0.582 µM) | 2.5 µg/mL (≈ 2.91 µM) | 0.1 µg/mL (≈ 0.116 µM) |  |  |  |  |  | 
11 | CCC(=O)O[C@H]1[C@H](O[C@@H]2[C@@H](C)[C@H](O[C@H]3C[C@@](C)(OC)[C@@H](O)[C@H](C)O3)[C@@H](C)C(=O)O[C@H](CC)[C@@]3(C)OC(=O)O[C@@H]3[C@@H](C)N(C)C[C@H](C)C[C@@]2(C)O)O[C@H](C)C[C@@H]1N(C)C [Example 10, 2'-propionyl-N-methyl-11-aza-10-deoxo-10-dihydro erythromycin A 13,14-cyclic carbonate] |  |  | 0.5 µg/mL (≈ 0.602 µM) | 1 µg/mL (≈ 1.2 µM) | 0.5 µg/mL (≈ 0.602 µM) | 0.5 µg/mL (≈ 0.602 µM) | 0.1 µg/mL (≈ 0.12 µM) | 0.5 µg/mL (≈ 0.602 µM) | 0.05 µg/mL (≈ 0.0602 µM) |  |  |  |  |  | 
12 | CCC(=O)O[C@H]1[C@H](O[C@@H]2[C@@H](C)[C@H](O[C@H]3C[C@@](C)(OC)[C@@H](OC(=O)CC)[C@H](C)O3)[C@@H](C)C(=O)O[C@H](CC)[C@@]3(C)OC(=O)O[C@@H]3[C@@H](C)N(C)C[C@H](C)C[C@@]2(C)O)O[C@H](C)C[C@@H]1N(C)C [Example 11, 2',4"-dipropionyl-N-methyl-11-aza-10-deoxo-10-dihydro erythromycin A 13,14-cyclic carbonate] |  |  | 2.5 µg/mL (≈ 2.82 µM) | 1 µg/mL (≈ 1.13 µM) | 1 µg/mL (≈ 1.13 µM) | 0.5 µg/mL (≈ 0.564 µM) | 0.1 µg/mL (≈ 0.113 µM) | 2.5 µg/mL (≈ 2.82 µM) | 0.05 µg/mL (≈ 0.0564 µM) |  |  |  |  |  | 
13 | CC[C@H]1OC(=O)[C@H](C)[C@@H](O[C@H]2C[C@@](C)(OC)[C@@H](O)[C@H](C)O2)[C@H](C)[C@@H](O[C@@H]2O[C@H](C)C[C@H](N(C)C)[C@H]2O)[C@](C)(O)C[C@@H](C)CN[C@H](C)[C@@H](O)[C@]1(C)O [Standard, 11-aza-10-deoxo-10-dihydro erythromycin A, reference compound] |  |  | 0.5 µg/mL (≈ 0.68 µM) | 0.5 µg/mL (≈ 0.68 µM) | 0.5 µg/mL (≈ 0.68 µM) | 0.05 µg/mL (≈ 0.068 µM) | 0.05 µg/mL (≈ 0.068 µM) | 0.5 µg/mL (≈ 0.68 µM) | 0.05 µg/mL (≈ 0.068 µM) |  |  |  |  |  | 
